For orientation: IC50 means the concentration at which inhibition is half-maximal. The Ki is the dissociation constant of the complex between target and ligand, obtained from inhibition or displacement.

Among the data in US8008299B2, “Urotensin II receptor antagonists” (Janssen Pharmaceutica, N.V., priority 2007, dated 2011) are IC50 and Ki values, retold here.

For assay [1], the target named is T1, rat GPR14 (U-II receptor) (Rattus norvegicus, UniProt P49684).
T1 construct: expressed in transfected cells
T1 sequence (P49684 1-386): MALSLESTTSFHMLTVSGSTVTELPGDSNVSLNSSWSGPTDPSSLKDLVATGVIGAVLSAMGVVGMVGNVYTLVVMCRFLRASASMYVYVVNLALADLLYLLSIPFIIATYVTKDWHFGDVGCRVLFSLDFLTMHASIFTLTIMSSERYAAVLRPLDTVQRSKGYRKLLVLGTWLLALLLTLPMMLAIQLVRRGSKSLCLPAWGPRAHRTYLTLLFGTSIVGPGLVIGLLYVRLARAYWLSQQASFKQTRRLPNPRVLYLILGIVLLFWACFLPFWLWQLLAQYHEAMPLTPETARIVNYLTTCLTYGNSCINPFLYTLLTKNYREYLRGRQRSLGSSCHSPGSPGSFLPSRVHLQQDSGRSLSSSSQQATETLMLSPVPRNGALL
Description: Rat UII Calcium Mobilization FLIPR Assay. The conditions noted are these: CHO cells transfected with rat GPR14; antagonist activity after 5 min incubation vs agonist (Ac)-CFWK(2-NaI)C-NH2 at 1 nM. Type of assay: cell-based. In a few lines: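 CHO cells stably expressing rat U-II receptor, seeded 24 h before assay, were loaded with FLIPR calcium dye in HBSS/20 mM HEPES/0.1% BSA/2.5 mM probenecid, pH 7.4, for 1 h at 37° C. Calcium mobilization then read by FLIPR at 23° C.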
For orientation: A change in cytosolic calcium serves as a functional read-out for many receptors and channels.

Assay [2] addresses T2, Human UII (U-II receptor) in 6D9 human rhabdomyosarcoma cells (Homo sapiens, UniProt Q9UKP6).
T2 construct: 6D9: isolated by dilution subcloning of RMS13 cells, ATCC® Number: CRL-2061; host or cells: 6D9 human rhabdomyosarcoma cells (subclone of RMS13)
T2 sequence (Q9UKP6 1-389): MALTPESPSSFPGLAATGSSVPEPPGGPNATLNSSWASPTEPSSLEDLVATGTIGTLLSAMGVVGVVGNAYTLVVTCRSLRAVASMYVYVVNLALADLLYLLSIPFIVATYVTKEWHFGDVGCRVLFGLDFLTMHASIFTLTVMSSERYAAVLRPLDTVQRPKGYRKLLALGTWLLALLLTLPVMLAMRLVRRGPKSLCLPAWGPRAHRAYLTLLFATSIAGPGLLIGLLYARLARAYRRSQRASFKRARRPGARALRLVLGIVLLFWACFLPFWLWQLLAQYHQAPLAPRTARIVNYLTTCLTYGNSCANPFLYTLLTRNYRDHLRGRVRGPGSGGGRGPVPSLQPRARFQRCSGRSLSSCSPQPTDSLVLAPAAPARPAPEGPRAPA
Description: Human UII Calcium Mobilization Assay. The assay is classed as cell-based.

Assay [3] concerns the target T3, UT receptors in HSMM (Human Skeletal Muscle Myoblasts) (Homo sapiens, UniProt Q9UKP6).
T3 sequence (Q9UKP6 1-389): T2 sequence (Q9UKP6 1-389)
As to the kind of experiment: Human Radioligand Binding Assay ((^125I)-U-II binding to intact HSMM).

The mark [4] stands for this setting: 6D9 human rhabdomyosarcoma cells, FLIPR TETRA, average, read-out: Human UII Ca+ Mobilization Average IC50.

Molecules are shown by their SMILES. Read-outs that look alike come from different tables or passages of the source. Bounds are passed on as bounds.

Consider `CCN1CCN(c2cccc3c2CN(C(c2ccc(OC)c(OC)c2)C2CCN(Cc4ccccc4)CC2)C3=O)CC1` (stereo not drawn) [Cpd 43, 2-[(1-benzyl-piperidin-4-yl)-(3,4-dimethoxy-phenyl)-methyl]-4-(4-ethyl-piperazin-1-yl)-2,3-dihydro-isoindol-1-one], for which the IC50 came to 173 nM in assay [1] and 2680 nM in assay [2] (setting [4]). The Ki in assay [3] was above 300 nM.
On to `CCN1CCN(c2cccc3c2CN([C@H](CCCN(C)Cc2ccccc2F)c2ccc(OC)c(OC)c2)C3=O)CC1` [Cpd 97, 2-{(1R)-1-(3,4-dimethoxy-phenyl)-4-[(2-fluoro-benzyl)-methyl-amino]-butyl}-4-(4-ethyl-piperazin-1-yl)-2,3-dihydro-isoindol-1-one], for which the results for the IC50 in assay [1] and in assay [2] (setting [4]) were 4 nM and 56 nM, respectively. Moreover, the affinity in assay [3] corresponds to a Ki of 26 nM.
The corresponding values for `CCN1CCN(c2cccc3c2CN([C@H](CCCOCc2c(F)cccc2F)c2ccc(OC)c(OC)c2)C3=O)CC1` [Cpd 46, 2-[(1R)-4-(2,6-difluoro-benzyloxy)-1-(3,4-dimethoxy-phenyl)-butyl]-4-(4-ethyl-piperazin-1-yl)-2,3-dihydro-isoindol-1-one] are 7730 nM, above 10000 nM and above 300 nM.
For `CCN(CC)CCC[C@H](c1ccc(OC)c(OC)c1)N1Cc2c(cccc2N2CCN(CC)CC2)C1=O` [Cpd 68, 2-[(1R)-4-diethylamino-1-(3,4-dimethoxy-phenyl)-butyl]-4-(4-ethyl-piperazin-1-yl)-2,3-dihydro-isoindol-1-one] the same measures were 178 nM, 2040 nM and above 300 nM.
For the compound `CCN1CCN(c2cccc3c2CN([C@H](CCCNc2nccc(Cl)n2)c2ccc(OC)c(OC)c2)C3=O)CC1` [Cpd 11, 2-[(1R)-4-(4-chloro-pyrimidin-2-ylamino)-1-(3,4-dimethoxy-phenyl)-butyl]-4-(4-ethyl-piperazin-1-yl)-2,3-dihydro-isoindol-1-one], the concentration for half-maximal inhibition (IC50) in assay [1] was found to be 1 nM; in assay [2] (setting [4]) it was 496 nM. In assay [3], this compound gave a Ki of 62 nM.
The corresponding values for `CCN1CCN(c2cccc3c2CN(C(c2ccc(OC)c(OC)c2)C2CCN(S(=O)(=O)c4cn(C)c(C)n4)CC2)C3=O)CC1` (stereo not drawn) [Cpd 44, 2-{(3,4-dimethoxy-phenyl)-[1-(1,2-dimethyl-1H-imidazole-4-sulfonyl)-piperidin-4-yl]-methyl}-4-(4-ethyl-piperazin-1-yl)-2,3-dihydro-isoindol-1-one] are 7330 nM, 3060 nM and above 300 nM.
As to `CCN1CCN(c2cccc3c2CN([C@H](CCCn2ccnc2)c2ccc(OC)c(OC)c2)C3=O)CC1` [Cpd 32, 2-[(1R)-1-(3,4-dimethoxy-phenyl)-4-imidazol-1-yl-butyl]-4-(4-ethyl-piperazin-1-yl)-2,3-dihydro-isoindol-1-one], the figures for the IC50 in assay [1] and in assay [2] (setting [4]) were 45 nM and 2040 nM, respectively. The compound also came in with a Ki in assay [3] of 157 nM.
As to `COc1ccc([C@@H](CCCN(C)S(=O)(=O)c2cccs2)N2Cc3c(cccc3N3CCN(C4CC4)CC3)C2=O)cc1OC` [Cpd 7, thiophene-2-sulfonic acid [(4R)-4-[4-(4-cyclopropyl-piperazin-1-yl)-1-oxo-1,3-dihydro-isoindol-2-yl]-4-(3,4-dimethoxy-phenyl)-butyl]-methyl-amide], the IC50 in assay [1] was 13 nM; in assay [2], 1170 nM. Moreover, the Ki in assay [3] (read-out: Human UII Average Binding Ki, intact HSMM, 0.150 nM (^125I)-U-II, 3 h, 25° C.) was determined as 59 nM.
On to `CCN1CCN(c2cccc3c2CN([C@H](CCCNS(=O)(=O)N(C)C)c2ccc(OC)c(OC)c2)C3=O)CC1` [Cpd 70, dimethylaminosulfonic acid {(4R)-4-(3,4-dimethoxy-phenyl)-4-[4-(4-ethyl-piperazin-1-yl)-1-oxo-1,3-dihydro-isoindol-2-yl]-butyl}-amide], for which the IC50 in assay [1] is 8 nM; in assay [2] (setting [4]), 97 nM. Besides, affinity in assay [3] was put at a Ki of 54 nM.
The corresponding values for `CCN1CCN(c2cccc3c2CN([C@H](CCCNc2c(N)c(=O)c2=O)c2ccc(OC)c(OC)c2)C3=O)CC1` [Cpd 76, 3-amino-4-{(4R)-4-(3,4-dimethoxy-phenyl)-4-[4-(4-ethyl-piperazin-1-yl)-1-oxo-1,3-dihydro-isoindol-2-yl]-butylamino}-cyclobut-3-ene-1,2-dione] are 46 nM, 674 nM and 33 nM.
Turning to `CCN1CCN(c2cccc3c2CN(C(CC2CCN(S(=O)(=O)c4cccs4)CC2)c2ccc(OC)c(OC)c2)C3=O)CC1` (stereo not drawn) [Cpd 18, 2-{1-(3,4-dimethoxy-phenyl)-2-[1-(thiophene-2-sulfonyl)-piperidin-4-yl]-ethyl}-4-(4-ethyl-piperazin-1-yl)-2,3-dihydro-isoindol-1-one], the values for the IC50 in assay [1] and in assay [2] (setting [4]) were 9 nM and 659 nM, respectively. Further, the Ki in assay [3] came out at 19 nM.
For `CCN1CCN(c2cccc3c2CN([C@H](CCCOCc2ccccc2)c2ccc(OC)c(OC)c2)C3=O)CC1` [Cpd 74, 2-[(1R)-4-benzyloxy-1-(3,4-dimethoxy-phenyl)-butyl]-4-(4-ethyl-piperazin-1-yl)-2,3-dihydro-isoindol-1-one] the same measures were 5 nM, 145 nM and 19 nM.
The corresponding values for `CCN1CCN(c2cccc3c2CN([C@H](CCCNc2nccc(C(F)(F)F)n2)c2ccc(OC)c(OC)c2)C3=O)CC1` [Cpd 22, 2-[(1R)-1-(3,4-dimethoxy-phenyl)-4-(4-trifluoromethyl-pyrimidin-2-ylamino)-butyl]-4-(4-ethyl-piperazin-1-yl)-2,3-dihydro-isoindol-1-one] are 3 nM, 187 nM and 13 nM.
For `CCN1CCN(c2cccc3c2CN([C@H](CCCNC(=O)c2ccncc2)c2ccc(OC)c(OC)c2)C3=O)CC1` [Cpd 54, N-{(4R)-4-(3,4-dimethoxy-phenyl)-4-[4-(4-ethyl-piperazin-1-yl)-1-oxo-1,3-dihydro-isoindol-2-yl]-butyl}-isonicotinamide] the same measures were 81 nM, 628 nM and 77 nM.
For the compound `COc1ccc([C@@H](CCCSc2ccccc2)N2Cc3c(cccc3N3CCNCC3)C2=O)cc1OC` [Cpd 36, 2-[(1R)-1-(3,4-dimethoxy-phenyl)-4-phenylsulfanyl-butyl]-4-piperazin-1-yl-2,3-dihydro-isoindol-1-one], the concentration for half-maximal inhibition (IC50) in assay [1] came to 19 nM; in assay [2] (setting [4]), 1150 nM. Affinity in assay [3] was put at a Ki of 122 nM.
For `COc1ccc([C@@H](CCCNc2nccc(C(F)(F)F)n2)N2Cc3c(cccc3N3CCNCC3)C2=O)cc1OC` [Cpd 6, 2-[(1R)-1-(3,4-dimethoxy-phenyl)-4-(4-trifluoromethyl-pyrimidin-2-ylamino)-butyl]-4-piperazin-1-yl-2,3-dihydro-isoindol-1-one] the same measures were 8 nM, 536 nM and 120 nM.
Turning to `CCN1CCN(c2cccc3c2CN(C(c2ccc(OC)c(OC)c2)C2CCN(S(=O)(=O)c4cccs4)CC2)C3=O)CC1` (stereo not drawn) [Cpd 45, 2-{(3,4-dimethoxy-phenyl)-[1-(thiophene-2-sulfonyl)-piperidin-4-yl]-methyl}-4-(4-ethyl-piperazin-1-yl)-2,3-dihydro-isoindol-1-one], the IC50 in assay [1] turned out to be 465 nM; in assay [2] (setting [4]) it was 3320 nM. In assay [3], this compound showed a Ki above 300 nM.
